In general, Solubility refers to how much of the substance goes into solution per volume. As usually defined, the viability is a per cent measure of how many cells are alive, often set against a control.

The text below walks through data of patent publication US8791132B2, “Compounds and methods for treatment of hypertension” (Medivation Technologies, Inc., priority 2011, dated 2014).

The target in data set [1] is T1, rat adrenergic α1B receptor (Rattus norvegicus, UniProt P15823).
T1 construct: rat adrenergic α1B receptor obtained from Wistar Rat liver; from tissue; host or cells: Wistar rat liver
T1 sequence (P15823 1-515): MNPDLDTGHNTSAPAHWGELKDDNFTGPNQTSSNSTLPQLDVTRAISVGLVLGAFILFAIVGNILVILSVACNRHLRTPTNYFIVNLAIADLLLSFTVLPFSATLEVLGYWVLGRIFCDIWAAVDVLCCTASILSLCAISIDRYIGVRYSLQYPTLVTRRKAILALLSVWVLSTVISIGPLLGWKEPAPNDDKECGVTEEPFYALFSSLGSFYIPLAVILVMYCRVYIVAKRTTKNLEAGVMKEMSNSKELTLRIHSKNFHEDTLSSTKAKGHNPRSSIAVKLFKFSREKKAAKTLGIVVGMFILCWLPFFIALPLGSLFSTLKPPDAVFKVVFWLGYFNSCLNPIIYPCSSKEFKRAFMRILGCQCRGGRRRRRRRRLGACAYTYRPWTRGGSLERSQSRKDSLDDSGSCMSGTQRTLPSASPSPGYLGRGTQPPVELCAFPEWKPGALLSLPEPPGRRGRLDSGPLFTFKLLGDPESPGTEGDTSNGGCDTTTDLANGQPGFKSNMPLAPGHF
Nature of the data set: Radioligand binding, adrenergic α1B ([3H]Prazosin). As to conditions: compound at 0.1 μM; [3H]Prazosin; repeat datapoints each shown; 0.1 µM. In a few lines:
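Incubation ran 60 min at 25 °C in Tris-HCl buffer (50 mM, pH 7.4, 0.5 mM EDTA) with Wistar rat liver α1B receptor. 10 μM phentolamine set non-specific binding.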

Data set [2] is described as follows: Solubility in MeOH (chiral preparative HPLC data). Format: physicochemical. As to conditions: sample for chiral preparative HPLC. As to the method:
For chiral separations, samples were dissolved in MeOH and EtOH according to the solubility of sample and filtered through 0.22μ. PTFE filters. The columns used were […]-AD; 20*250 mm, 10μ and […]-ODH; 20*250 mm, 5μ. A flow rate of 12 mL/min-17 mL/min was used according to the resolution. Alkanes such as n-Pentane, Hexane and Heptane (40%-95%) and alcohols such as EtOH, Isopropyl alcohol and t-Butanol (5%-60%) were used as mobile phase. In some cases alcohol combinations i.e. (EtOH+MeOH), (EtOH+IPA), (IPA+MeOH), (t-Butanol+MeOH), (t-Butanol+EtOH) were used instead of a single alcohol. Diethyl amine (up to 0.3%) was used as modifier in the mobile phase.
Column: Chiralcel OD-H. Column ID: 20*250 mm, 5μ. Mobile Phase:Hexane: (EtOH:MeOH 80:20)−95:5. Flow rate: 15 mL/min. Solubility: 30 mg/mL in MeOH.
Column: Chiral PAK-AD-H. Column ID: 20*250 mm, 5μ. Mobile Phase:Hexane (0.2% diethylamine):Isopropanol−93:7. Flow rate: 15 mL/min. Solubility: 40 mg/mL in MeOH.

The target in data set [3] is T2, human recombinant adrenergic α2A receptor (Homo sapiens, UniProt P08913).
T2 construct: expressed in transfected cells; host or cells: insect Sf9 cells
T2 sequence (P08913 1-465): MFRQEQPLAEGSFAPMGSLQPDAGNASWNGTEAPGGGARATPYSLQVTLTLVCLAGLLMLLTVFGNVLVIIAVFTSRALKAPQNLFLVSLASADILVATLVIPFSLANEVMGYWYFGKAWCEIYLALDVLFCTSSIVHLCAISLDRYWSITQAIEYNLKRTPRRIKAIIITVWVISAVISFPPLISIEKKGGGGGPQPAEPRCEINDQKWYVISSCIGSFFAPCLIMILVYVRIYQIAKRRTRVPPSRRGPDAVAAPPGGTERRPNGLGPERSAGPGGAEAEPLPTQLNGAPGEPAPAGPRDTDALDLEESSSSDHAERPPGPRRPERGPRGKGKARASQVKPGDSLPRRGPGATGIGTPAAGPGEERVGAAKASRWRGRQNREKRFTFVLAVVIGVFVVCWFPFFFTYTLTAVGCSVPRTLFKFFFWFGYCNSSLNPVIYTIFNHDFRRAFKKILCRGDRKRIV
The data set is described as follows: Radioligand binding, adrenergic α2A ([3H]MK-912). As to conditions: compound at 0.1 μM; [3H]MK-912; repeat datapoints each shown; 0.1 µM. In a few lines:
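Receptor expressed in insect Sf9 cells, assayed in 50 mM Tris-HCl pH 7.4 with 12.5 mM MgCl2 and 2 mM EDTA. Compounds incubated with 1 nM [3H]MK-912 for 60 min at 25 °C; nonspecific binding defined with 10 μM WB-4101. Filter-bound radioactivity counted; values are percent inhibition of specific binding.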

Data set [4] has as its target T3, human recombinant adrenergic α2B receptor (Homo sapiens, UniProt P18089).
T3 construct: expressed in transfected cells; host or cells: CHO-K1
T3 sequence (P18089 1-450): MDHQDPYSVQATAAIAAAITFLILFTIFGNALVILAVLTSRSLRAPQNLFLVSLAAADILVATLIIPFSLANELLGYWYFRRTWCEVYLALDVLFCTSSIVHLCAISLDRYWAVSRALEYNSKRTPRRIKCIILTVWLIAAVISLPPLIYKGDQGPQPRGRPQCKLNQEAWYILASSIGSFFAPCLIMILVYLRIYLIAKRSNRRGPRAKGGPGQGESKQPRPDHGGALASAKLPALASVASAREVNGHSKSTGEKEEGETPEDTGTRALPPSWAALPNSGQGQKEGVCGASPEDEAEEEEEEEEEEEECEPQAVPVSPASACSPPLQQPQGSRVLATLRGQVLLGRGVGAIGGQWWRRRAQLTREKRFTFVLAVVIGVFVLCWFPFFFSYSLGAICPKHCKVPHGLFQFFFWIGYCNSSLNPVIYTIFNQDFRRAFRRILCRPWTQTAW
The data set is described as follows: Radioligand binding, adrenergic α2B ([3H]Rauwolscine). As to conditions: compound at 0.03 μM; [3H]Rauwolscine; repeat datapoints each shown; 0.03 µM. In a few lines:
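Values are percent inhibition of specific radioligand binding. The receptor, expressed in CHO-K1 cells, was exposed to 2.5 nM [3H]Rauwolscine at 25° C for 60 min, with 10 μM Prazosin marking non-specific binding.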

Data set [5] deals with SH-SY5Y cells. The data set is described as follows: Cell viability (MTS reduction) in 4-Br-A23187-treated SH-SY5Y cells. Format: cell-based. The settings on record: MTS reduction capacity; 4-Br-A23187 2 μM, 24 h; compounds at 10 nM. As to the method:
(§1) After 24 h, cells were depleted from FBS and kept in culture for 24 h before the experiment. Cells were then treated with 4-Br-A23187 (2 μM), hydrogen peroxide (300 μM) or the mitochondrial toxin rotenone (25 μM) in the presence of vehicle or Compound of the Invention for 24 h. Cell death was determined by measurements of LDH release according to the Cytotoxicity Detection KitPlus (Roche, Mannheim, Germany). Cell viability was determined by measuring the capacity of cells to metabolize MTS tetrazolium (MTS) according to the Cytotoxicity Detection KitPlus (Roche, Mannheim, Germany) and MTS reduction is assessed by the CellTiter 96® AQueous One Solution Cell Proliferation assay (Promega Corporation, Madison, Wis., USA). Compounds were screened at 10 nM, using DMSO as vehicle. Assay results for the experiments with hydrogen peroxide are presented as the LDH release (cell death) of untreated cells (control), hydrogen peroxide-treated cells (vehicle), and co-incubation of hydrogen peroxide with Compounds of the Invention treated cells normalized to the vehicle (FIG. 17A). This assay assesses the ability of the test compounds to protect against cell death that is mediated by mitochondrial dysfunction. In the assay, the calcium ionophore 4-Br-A23187 is used to challenge the cells, causing calcium levels to rise in mitochondria, which leads to depolarization and cell death. Test compounds are assessed for their ability to prevent cell death in response to challenge with 4-Br-A23187.
Background: Tetrazolium dyes change colour on reduction, which living cells bring about.

The test system of data set [6] is SH-SY5Y cells. The data set is described as follows: Cell death (LDH release) in hydrogen peroxide-treated SH-SY5Y cells. Format: cell-based. The settings on record: LDH release normalized to vehicle (=100); hydrogen peroxide 300 μM, 24 h; compounds at 10 nM. As to the method:
as §1, with “SH-SY5Y cells cultured in DMEM/F12 media supplemented with 10% FBS were seeded in 96-well microplates at 150,000 cells/cm^2. After” for “After”

In data set [7] the test system is SH-SY5Y cells over-expressing α-syn. The data set is described as follows: Cell viability (MTS reduction) in SH-SY5Y cells over-expressing α-synuclein. As to conditions: Homo sapiens, 336 h, α-syn over-expression (−dox), +dox control = 100, 14 days, read-out: Relative cell viability protection. Format: cell-based. As to the method:
Cell Culture. SH-SY5Y cells stably transfected with a doxycyline-inducible wild-type α-synuclein (α-syn) gene along with control SH-SY5Y cells over-expressing the β-galactosidase (β-gal) gene (a gift from L. Stefanis, Division of Basic Neurosciences, Biomedical Research Foundation of the Academy of Athens, Athens, Greece) are cultured as described by Vekrellis et al. (Vekrellis K, Xilouri M, Emmanouilidou E, Stefanis L. (2009). Inducible over-expression of α-syn in human neuronal cells leads to caspase-dependent non-apoptotic death. J Neurochem 109, 1348-1362). In accordance with this method, cells are cultured and maintained in RPMI 1640, 10% fetal bovine serum supplemented with 250 μg/mL G418 and 50 μg/mL Hygromycin B. Expression of α-syn is switched off in stock cultures with doxycycline (2 μg/mL). For experimental procedures, cells are plated at (4−8×10^4 cells/cm^2) and differentiated in absence of doxycycline and in the presence of 20 μM all-trans retinoic acid (RA) (Sigma, St Louis, Mo., USA).
Viability Assay: Cells are cultured in 96-well plates. After 24 h, cells are treated with RA and Compounds of Invention at 0.1 and 10 nM in the absence of doxycyline. Culture medium with RA and drugs is fully replaced after 7 days. Cell viability is measured by the release of lactate dehydrogenase (LDH) from necrotic cells into the culture medium and by measuring the capacity of cells to metabolize MTS tetrazolium (MTS) after 14 days in culture. LDH leakage is assessed according to the Cytotoxicity Detection KitPlus (Roche, Mannheim, Germany) and MTS reduction is assessed by the CellTiter 96® AQueous One Solution Cell Proliferation assay (Promega Corporation, Madison, Wis., USA).
Assay results for the experiments with α-syn over-expression are presented as the MTS reduction capacity (cell viability) of control cells (+dox), cells over-expressing α-syn (−dox), and cells over-expressing α-syn incubated with Compounds of the Invention at 0.1 nM (FIG. 18A) or 10 nM (FIG. 18B).

For `Cc1cnc2c(c1)c1c(n2CC(C)(O)c2ccc(F)cc2)CCN(C)C1` (single isomer, unassigned) [138a], the “Percentage inhibition of ligand binding, Adrenergic α1B (0.1 μM)” value in data set [1] is listed as 61%. Also, the Solubility in data set [2] was determined as 30 mg/mL. Besides, the “Percentage inhibition of ligand binding, Adrenergic α2A (0.1 μM)” value in data set [3] is −8%. In data set [4], the “Percentage inhibition of ligand binding, Adrenergic α2B (0.03 μM)” value worked out at 63%.

As to `Cc1cnc2c(c1)c1c(n2CC(C)(O)c2ccc(F)cc2)CCN(C)C1` (single isomer, unassigned) [138b], the “Percentage inhibition of ligand binding, Adrenergic α1B (0.1 μM)” value in data set [1] is 22%. Further, the Solubility in data set [2] amounted to 30 mg/mL. Further, the “Percentage inhibition of ligand binding, Adrenergic α2A (0.1 μM)” value in data set [3] amounted to 4%. Further, the “Percentage inhibition of ligand binding, Adrenergic α2B (0.03 μM)” value in data set [4] was 25%.

As for `Cc1ccc2c(c1)c1c(n2CCc2ccc(C)nc2)CCN(C)C1` [Dimebon (DMB), dimebon, reference compound], the “Relative cell viability protection” value in data set [5] amounted to 0.3538. The “LDH release (cell death), relative to vehicle” value in data set [6] amounted to 91.15. Also, in data set [7] (compounds at 0.1 nM), the viability at 0.0001 µM was 70.5%. In addition, the viability at 0.01 µM in data set [7] (compounds at 10 nM) worked out at 85.7%.
